Data published in the supplement of paper PMC10307832.

What was measured:
Test in all cases: relative viability (nuclei count vs DMSO), 5 days (fraction); higher = more cells survive
[1] = compound: CC1=C(C(=NN1)C)CC2=C(C3=C(S2)N(C(=O)N(C3=O)C)CC(C)C)C(=O)N4C[C@@H](CO4)O + COc1cc2c(Oc3ccc(NC(=O)C4(C(=O)Nc5ccc(F)cc5)CC4)cc3F)ccnc2cc1OCCCN1CCOCC1 [Foretinib] (partner 0.25 µM)
Summary of the method: (§1)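 For relative viability, nuclei counts in treated wells were divided by those in vehicle wells. Lung cancer cell lines had been pin-tool dosed in 1536-well plates the day after seeding and cultured for 5 days, then fixed and stained in one step (final 0.05% Triton X-100, 1% formaldehyde, 1 ug/ml Hoechst) and imaged at 4×. Doses were one drug alone or a fixed anchor-drug dose plus five library-drug doses (not always all listed) in √10 steps, and values are duplicate-plate medians.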

[2] = compound: CC1=C(C(=NN1)C)CC2=C(C3=C(S2)N(C(=O)N(C3=O)C)CC(C)C)C(=O)N4C[C@@H](CO4)O + CS(=O)(=O)N1CCN(Cc2cc3nc(-c4cccc5[nH]ncc45)nc(N4CCOCC4)c3s2)CC1 [Pictilisib] (partner 1 µM)
Summary of the method: as §1

IDH-C35 + Tozasertib = compound: Cc1ccccc1C(C(=O)NC1CCCCC1)N(C(=O)Cn1ccnc1C)c1cccc(F)c1 [IDH-C35] + Cc1cc(Nc2cc(N3CCN(C)CC3)nc(Sc3ccc(NC(=O)C4CC4)cc3)n2)n[nH]1 [Tozasertib] (partner 0.1 µM)
Summary of the method: as §1

IDH-C35 + Olaparib = compound: Cc1ccccc1C(C(=O)NC1CCCCC1)N(C(=O)Cn1ccnc1C)c1cccc(F)c1 [IDH-C35] + O=C(c1cc(Cc2n[nH]c(=O)c3ccccc23)ccc1F)N1CCN(C(=O)C2CC2)CC1 [Olaparib] (partner 8 µM)
Summary of the method: as §1

Cell Line	relative viability ([1]; first compound 0.0025 µM)	relative viability ([1]; first compound 0.007906 µM)	relative viability ([1]; first compound 0.025 µM)	relative viability ([1]; first compound 0.07906 µM)	relative viability ([1]; first compound 0.25 µM)	relative viability ([2]; first compound 0.0025 µM)	relative viability ([2]; first compound 0.007906 µM)	relative viability ([2]; first compound 0.025 µM)	relative viability ([2]; first compound 0.07906 µM)	relative viability ([2]; first compound 0.25 µM)	relative viability (IDH-C35 + Tozasertib; first compound 0.08 µM)	relative viability (IDH-C35 + Tozasertib; first compound 0.253 µM)	relative viability (IDH-C35 + Tozasertib; first compound 0.8 µM)	relative viability (IDH-C35 + Tozasertib; first compound 2.53 µM)	relative viability (IDH-C35 + Tozasertib; first compound 8 µM)	relative viability (IDH-C35 + Olaparib; first compound 0.08 µM)	relative viability (IDH-C35 + Olaparib; first compound 0.253 µM)	relative viability (IDH-C35 + Olaparib; first compound 0.8 µM)	relative viability (IDH-C35 + Olaparib; first compound 2.53 µM)	relative viability (IDH-C35 + Olaparib; first compound 8 µM)
NCI-H1355	1.04	1.11	1	1.02	1.12	0.45	0.562	0.528	0.405	0.5	0.538	0.606	0.601	0.526	0.502	0.71	0.755	0.749	0.741	0.73
H3255	1.03	0.968	0.784	0.802	0.775	0.523	0.473	0.43	0.45	0.62	0.59	0.6	0.522	0.511	0.703	0.554	0.576	0.579	0.63	0.553
NCI-H1993	0.767	0.719	0.827	0.711	0.749	0.866	0.888	0.89	0.728	0.756	0.545	0.614	0.551	0.579	0.536	1.21	1.13	1.03	0.997	1.08
NCI-H1734	0.811	0.976	0.896	0.9	0.916	0.474	0.544	0.488	0.473	0.486	0.28	0.27	0.246	0.247	0.249	0.585	0.628	0.61	0.634	0.588
HOP-62	1.2	1.09	1.04	1.06	1.09	0.719	0.876	0.903	0.787	0.825	0.394	0.368	0.334	0.382	0.331	0.46	0.222	0.272	–	0.39
LOU-NH91	0.931	0.877	0.988	1.02	0.972	0.503	0.494	0.495	0.571	0.529	0.739	0.69	0.687	0.598	0.652	0.949	0.976	0.888	0.852	0.919
ChaGo-K-1	0.886	0.979	0.888	0.914	0.968	0.794	0.608	–	1.01	1.04	0.22	0.231	0.221	0.258	0.203	0.432	0.432	0.438	0.452	0.42
NCI-H2228	0.828	1.04	0.734	0.83	1.08	0.546	0.356	0.439	0.352	0.443	0.319	0.221	0.302	0.246	0.203	0.601	0.781	0.61	0.71	0.516
PC-14	0.973	0.936	0.941	0.942	1.09	0.737	1.01	0.805	0.767	0.842	0.634	0.542	0.611	0.58	0.557	0.251	0.271	0.222	0.292	0.237
NCI-H1437	1.26	1.29	1.18	1.3	1.24	0.461	0.44	0.451	0.46	0.465	0.411	0.443	0.405	0.413	0.366	0.61	0.649	0.609	0.619	0.602
NCI-H460	1.01	1.09	0.949	1.01	1.11	0.432	0.492	0.356	0.367	0.387	0.614	0.396	0.493	0.336	0.412	0.416	0.419	0.439	0.387	0.367
NCI-H1666	0.93	0.995	0.897	0.94	1.03	0.405	0.399	0.53	0.482	0.406	0.585	0.752	0.619	0.58	0.536	0.777	0.795	0.721	0.781	0.718
NCI-H1651	0.708	0.832	0.735	0.821	0.815	0.579	0.634	0.651	0.558	0.52	0.696	0.737	0.643	0.632	0.683	0.173	0.179	0.181	0.166	0.188
NCI-H1755	0.97	0.996	0.873	0.911	0.897	0.445	0.42	0.44	0.479	0.497	0.587	0.522	0.607	0.671	0.553	0.923	0.806	0.884	0.847	0.866
NCI-H661	1	0.97	0.95	0.978	0.998	0.473	0.41	0.378	0.379	0.385	0.326	0.358	0.372	0.346	0.355	0.758	0.743	0.738	0.71	0.688
HARA	1	1.01	0.84	0.656	0.984	0.473	0.372	0.369	0.506	0.283	0.0971	0.135	0.104	–	0.133	0.835	1.03	0.742	0.725	0.845
